Two compounds from US4292305A, “Antiallergic imidodisulfamides” (SmithKline Corporation, priority 1980, dated 1981) can be followed below.

This experiment deals with slow reacting substance of anaphylaxis (SRS-A). The experiment can be described thus: Inhibition of SRS-A induced contraction of guinea pig ileum. Type of experiment: cell-based. The settings on record: Cavia porcellus, 0.25 h, partially purified SRS-A from guinea pig lung at 40 μg/ml, isolated guinea pig ileum, read-out: antagonism of SRS-A. The procedure:
The SRS-A antagonist activity of the compounds of this invention is measured by the ability of the active medicament to inhibit SRS-A induced contraction of guinea pig ileum. In this test system, sections of ileum are resected from guinea pigs and placed in 5 ml. tissue baths containing a modified Tyrode's solution. One end of the tissue is fixed to a glass tissue holder, the other is connected to a force-displacement transducer and the tissue is placed under a tension of 500 mg. Isometric tissue contractions are recorded on a six channel polygraph. Baths are constantly aerated with 95% O2 -5% CO2. After a 20 minute stabilization period a concentration of the appropriate agonist which provides a contraction height of 60-80% of the maximum obtainable to that agonist (as determined from full sequential concentration--response curves in separate experiments) is added to the tissue bath and the response recorded. The procedure is repeated until reproducible responses are obtained. […] Percent inhibition produced by the test compound is calculated by substracting the mean percentage change in control tissue from the mean percentage change in tissues exposed to the test compound. Additional compounds are then evaluated as long as the tissue remains reproducibly responsive to the agonist. […]

As to `O=S(=O)(Nc1ccc(Br)cc1)NS(=O)(=O)Nc1ccc(Br)cc1` [1,5-di-(4-bromophenyl)-imidodisulfamide], under “test compound 5×10^-5 M”, the inhibition at 50 µM worked out at 47%. For the compound `O=S(=O)(NCCCCc1ccccc1)NS(=O)(=O)NCCCCc1ccccc1` [1,5-di-(4-phenylbutyl)-imidodisulfamide], the inhibition at 10 µM (test compound 1×10^-5 M) amounted to 40%.
